Results on 45 molecules are retold here after patent US10034886B2, “GLP-1 receptor modulators” (Celgene International II SÀRL, priority 2014, dated 2018).

pEC50: −log10 of the molar value.

The first assay deals with T1, GLP-1R (Homo sapiens, UniProt P43220).
T1 construct: host or cells: GLP-1R CRE-bla CHO-K1 cells
T1 sequence (P43220 24-463): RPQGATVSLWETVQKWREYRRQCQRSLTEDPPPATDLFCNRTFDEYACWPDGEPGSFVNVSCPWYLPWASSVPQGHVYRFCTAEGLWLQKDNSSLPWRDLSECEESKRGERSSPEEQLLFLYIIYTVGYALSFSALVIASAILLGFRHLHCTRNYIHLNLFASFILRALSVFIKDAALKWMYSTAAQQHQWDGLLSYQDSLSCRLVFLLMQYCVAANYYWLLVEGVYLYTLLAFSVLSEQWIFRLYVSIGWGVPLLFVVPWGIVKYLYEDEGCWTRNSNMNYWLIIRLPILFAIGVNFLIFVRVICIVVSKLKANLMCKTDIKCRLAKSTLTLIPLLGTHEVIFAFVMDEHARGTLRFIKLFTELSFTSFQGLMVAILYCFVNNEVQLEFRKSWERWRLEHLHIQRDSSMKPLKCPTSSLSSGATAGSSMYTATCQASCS
T1 sequence (P01275 100-127 partner limits assumed): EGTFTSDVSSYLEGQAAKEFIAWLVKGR
Put plainly: EC20 GLP-1(9-36) PAM cAMP assay: dose response of compound in the presence of fixed concentration of GLP-1(9-36). Format: cell-based. To be noted: GLP-1R CRE-bla CHO-K1 cells, compound dose response with fixed concentration of GLP-1(9-36), read-out: EC20 GLP-1(9-36) PAM EC50. The essentials: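 Positive allosteric modulation read as cAMP accumulation: compound titrations (12 points) combined with an EC20 level of GLP-1(9-36) on CHO-K1 GLP-1R CRE-bla cells, IBMX present, 30 min, 37 °C, pH 7.4 buffer. Luminescence converted to cAMP via standards; non-linear fit gave EC50 and Emax.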
For `CC(C)(C)c1ccc(C(=O)N[C@@H](Cc2ccc(-c3ncc(-c4ccc(-c5cccc(C#N)c5)cc4F)cn3)cc2)C(=O)N2CC(C(=O)O)C2)s1` [Compound 1202], the pEC50 is 5.00 to 5.30.
As for `CC(C)(C)c1ccc(C(=O)N[C@@H](Cc2ccc(-c3ncc(-c4ccc(-c5ccc(OC(F)(F)F)cc5F)cc4F)cn3)cc2)C(=O)N2CC(C(=O)O)C2)s1` [Compound 1203], the pEC50 is over 6.10.
Turning to `Cc1ccc(-c2ccc(-c3cnc(-c4ccc(C[C@H](NC(=O)c5ccc(C(C)(C)C)s5)C(=O)N5CC(C(=O)O)C5)cc4)nc3)c(F)c2)c(F)c1` [Compound 1204], the pEC50 is over 6.10.
For the molecule `Cc1cccc(C)c1-c1ccc(-c2cnc(-c3ccc(C[C@H](NC(=O)c4ccc(C(C)(C)C)s4)C(=O)N4CC(C(=O)O)C4)cc3)nc2)c(F)c1` [Compound 1205], the pEC50 was over 6.10.
With `Cc1cc(F)ccc1-c1ccc(-c2cnc(-c3ccc(C[C@H](NC(=O)c4ccc(C(C)(C)C)s4)C(=O)N4CC(C(=O)O)C4)cc3)nc2)c(F)c1` [Compound 1206], the pEC50 was 5.60 to 6.10.
On to `Cc1ccc(-c2ccc(-c3cnc(-c4ccc(C[C@H](NC(=O)c5ccc(C(C)(C)C)s5)C(=O)N5CC(C(=O)O)C5)cc4)nc3)c(F)c2)cc1` [Compound 1207], for which the pEC50 is over 6.10.
For `CCCc1ccc(-c2ccc(-c3cnc(-c4ccc(C[C@H](NC(=O)c5ccc(C(C)(C)C)s5)C(=O)N5CC(C(=O)O)C5)cc4)nc3)c(F)c2)cc1` [Compound 1208], the pEC50 was over 6.10.
As for `CC(C)(C)c1ccc(C(=O)N[C@@H](Cc2ccc(-c3ncc(-c4ccc(-c5ccc(C6CC6)cc5)cc4F)cn3)cc2)C(=O)N2CC(C(=O)O)C2)s1` [Compound 1209], the pEC50 was over 6.10.
Regarding `CC(C)(C)c1ccc(C(=O)N[C@@H](Cc2ccc(-c3ncc(-c4ccc(-c5ccc(C6CCC6)cc5)cc4F)cn3)cc2)C(=O)N2CC(C(=O)O)C2)s1` [Compound 1210], the pEC50 is over 6.10.
The same measure, in the same setting: with `CC(C)(C)c1ccc(C(=O)N[C@@H](Cc2ccc(-c3ncc(-c4ccc(-c5ccc(C6CCCC6)cc5)cc4F)cn3)cc2)C(=O)N2CC(C(=O)O)C2)s1` [Compound 1211] the figure was over 6.10.
Take `CC(C)(C)c1ccc(C(=O)N[C@@H](Cc2ccc(-c3ncc(-c4ccc(-c5ccc(C6CCCCC6)cc5)cc4F)cn3)cc2)C(=O)N2CC(C(=O)O)C2)s1` [Compound 1212]: the pEC50 is over 6.10.
`CC(C)(C)c1ccc(C(=O)N[C@@H](Cc2ccc(-c3ncc(-c4ccc(-c5ccc(F)cc5)cc4F)cn3)cc2)C(=O)N2CC(C(=O)O)C2)s1` [Compound 1213]: the negative-log EC50 (pEC50) is over 6.10.
In the case of `Cc1ccc(-c2ccc(-c3ccc(-c4cnc(-c5ccc(C[C@H](NC(=O)c6ccc(C(C)(C)C)s6)C(=O)N6CC(C(=O)O)C6)cc5)nc4)c(F)c3)cc2)cc1` [Compound 1214], the pEC50 is 5.30 to 5.60.
Consider `CC(C)(C)c1ccc(C(=O)N[C@@H](Cc2ccc(-c3ncc(-c4ccc(-c5cccc(OC(F)(F)F)c5)cc4F)cn3)cc2)C(=O)N2CC(C(=O)O)C2)s1` [Compound 1215], for which the pEC50 is over 6.10.
Consider `CC(C)(C)c1ccc(C(=O)N[C@@H](Cc2ccc(-c3ncc(-c4ccc(-c5ccc(C(F)(F)F)c(F)c5F)cc4F)cn3)cc2)C(=O)N2CC(C(=O)O)C2)s1` [Compound 1216], for which the pEC50 is over 6.10.
As for `CC(C)(C)c1ccc(C(=O)N[C@@H](Cc2ccc(-c3ncc(-c4ccc(-c5ccc(C(F)(F)F)c(F)c5)cc4F)cn3)cc2)C(=O)N2CC(C(=O)O)C2)s1` [Compound 1217], the pEC50 is over 6.10.
With `CC(C)(C)c1ccc(C(=O)N[C@@H](Cc2ccc(-c3ncc(-c4ccc(-c5ccc(C(F)(F)F)cc5)cc4F)cn3)cc2)C(=O)N2CC(C(=O)O)C2)s1` [Compound 1218], the negative logarithm of the EC50 (pEC50) is over 6.10.
As for `Cc1cc(-c2ccc(-c3cnc(-c4ccc(C[C@H](NC(=O)c5ccc(C(C)(C)C)s5)C(=O)N5CC(C(=O)O)C5)cc4)nc3)c(F)c2)ccc1OC(F)(F)F` [Compound 1219], the negative logarithm of the EC50 (pEC50) was over 6.10.
With `CC(C)c1ccc(-c2ccc(-c3cnc(-c4ccc(C[C@H](NC(=O)c5ccc(C(C)(C)C)s5)C(=O)N5CC(C(=O)O)C5)cc4)nc3)c(F)c2)cc1` [Compound 1220], the pEC50 was over 6.10.
On to `CC(C)Cc1ccc(-c2ccc(-c3cnc(-c4ccc(C[C@H](NC(=O)c5ccc(C(C)(C)C)s5)C(=O)N5CC(C(=O)O)C5)cc4)nc3)c(F)c2)cc1` [Compound 1221], for which the pEC50 is over 6.10.
Turning to `CC(C)(C)c1ccc(C(=O)N[C@@H](Cc2ccc(-c3ncc(-c4ccc(-c5ccc(C(F)(F)F)cc5F)cc4F)cn3)cc2)C(=O)N2CC(C(=O)O)C2)s1` [Compound 1222], the pEC50 was over 6.10.
On to `CC(C)(C)c1ccc(C(=O)N[C@@H](Cc2ccc(-c3ncc(-c4ccc(-c5ccccc5C(F)(F)F)cc4F)cn3)cc2)C(=O)N2CC(C(=O)O)C2)s1` [Compound 1223], for which the pEC50 is over 6.10.
As to `CC(C)(C)c1ccc(C(=O)N[C@@H](Cc2ccc(-c3ncc(-c4ccc(-c5ccccc5OC(F)(F)F)cc4F)cn3)cc2)C(=O)N2CC(C(=O)O)C2)s1` [Compound 1224], the pEC50 is over 6.10.
Consider `Cc1cc(-c2ccc(-c3cnc(-c4ccc(C[C@H](NC(=O)c5ccc(C(C)(C)C)s5)C(=O)N5CC(C(=O)O)C5)cc4)nc3)c(F)c2)ccc1C(F)(F)F` [Compound 1225], for which the pEC50 is over 6.10.
Regarding `CCCCc1ccc(-c2ccc(-c3cnc(-c4ccc(C[C@H](NC(=O)c5ccc(C(C)(C)C)s5)C(=O)N5CC(C(=O)O)C5)cc4)nc3)c(F)c2)cc1` [Compound 1226, (S)-1-(2-(5-(tert-butyl)thiophene-2-carboxamido)-3-(4-(5-(4′-butyl-3-fluoro-[1,1′-biphenyl]-4-yl)pyrimidin-2-yl)phenyl)propanoyl)azetidine-3-carboxylic acid], the pEC50 was over 6.10.
Turning to `CC(C)CCCOc1ccc(-c2cnc(-c3ccc(C[C@H](NC(=O)c4ccc(C(C)C)cc4)C(=O)N4CC(C(=O)O)C4)cc3)nc2)cc1` [Compound 1227], the pEC50 was 5.60 to 6.10.
`CCc1ccc(C(=O)N[C@@H](Cc2ccc(-c3ncc(-c4ccc(OCCCC(C)C)cc4)cn3)cc2)C(=O)N2CC(C(=O)O)C2)cc1` [Compound 1228]: the pEC50 was 5.60 to 6.10.
With `COc1ccc(C(=O)N[C@@H](Cc2ccc(-c3ncc(-c4ccc(OCCCC(C)C)cc4)cn3)cc2)C(=O)N2CC(C(=O)O)C2)cc1` [Compound 1229], the pEC50 is 5.30 to 5.60.
Take `CCOc1ccc(C(=O)N[C@@H](Cc2ccc(-c3ncc(-c4ccc(OCCCC(C)C)cc4)cn3)cc2)C(=O)N2CC(C(=O)O)C2)cc1` [Compound 1230]: the pEC50 was 5.60 to 6.10.
Take `CC(C)CCCOc1ccc(-c2cnc(-c3ccc(C[C@H](NC(=O)c4ccc(C(C)(C)C)nc4)C(=O)N4CC(C(=O)O)C4)cc3)nc2)cc1` [Compound 1231]: the negative-log EC50 (pEC50) is 5.60 to 6.10.
Same read-out and setting: with `CCCc1ccc(C(=O)N[C@@H](Cc2ccc(-c3ncc(-c4ccc(OCCCC(C)C)cc4)cn3)cc2)C(=O)N2CC(C(=O)O)C2)cc1` [Compound 1232] the figure was 5.60 to 6.10; with `CC(C)CCCOc1ccc(-c2cnc(-c3ccc(C[C@H](NC(=O)c4ccc(C5CC5)cc4)C(=O)N4CC(C(=O)O)C4)cc3)nc2)cc1` [Compound 1233], 5.60 to 6.10; with `CC(C)CCCOc1ccc(-c2cnc(-c3ccc(C[C@H](NC(=O)c4ccc(CC(C)C)s4)C(=O)N4CC(C(=O)O)C4)cc3)nc2)cc1` [Compound 1234], 5.30 to 5.60.
`CCCOc1ccc(C(=O)N[C@@H](Cc2ccc(-c3ncc(-c4ccc(OCCCC(C)C)cc4)cn3)cc2)C(=O)N2CC(C(=O)O)C2)cc1` [Compound 1235]: the pEC50 is 5.30 to 5.60.
Turning to `CC(C)CCCOc1ccc(-c2cnc(-c3ccc(C[C@H](NC(=O)c4ccc(CC(C)C)cc4)C(=O)N4CC(C(=O)O)C4)cc3)nc2)cc1` [Compound 1236], the pEC50 was 5.60 to 6.10.
Regarding `CCC(C)(C)c1ccc(C(=O)N[C@@H](Cc2ccc(-c3ncc(-c4ccc(OCCCC(C)C)cc4)cn3)cc2)C(=O)N2CC(C(=O)O)C2)cc1` [Compound 1237], the pEC50 is 5.30 to 5.60.

The assay is the same for the next values; noted with them: dose response of compound in presence of fixed concentration of GLP-1(9-36), GLP-1R CRE-bla CHO-K1 cells, read-out: EC20 GLP-1(9-36) PAM EC50.
In the case of `CC(=O)c1cccc(-c2ccc(-c3cnc(-c4ccc(C[C@H](NC(=O)c5ccc(C(C)(C)C)s5)C(=O)N5CC(C(=O)O)C5)cc4)nc3)c(F)c2)c1` [Compound 1193], the pEC50 was over 6.10.
Turning to `CC(C)(C)c1ccc(C(=O)N[C@@H](Cc2ccc(-c3ncc(-c4ccc(-c5ccccc5F)cc4F)cn3)cc2)C(=O)N2CC(C(=O)O)C2)s1` [Compound 1194], the pEC50 is over 6.10.
For `CC(C)(C)c1ccc(C(=O)N[C@@H](Cc2ccc(-c3ncc(-c4ccc(-c5ccccc5Cl)cc4F)cn3)cc2)C(=O)N2CC(C(=O)O)C2)s1` [Compound 1195], the pEC50 is over 6.10.
For `Cc1ccc(-c2ccc(-c3cnc(-c4ccc(C[C@H](NC(=O)c5ccc(C(C)(C)C)s5)C(=O)N5CC(C(=O)O)C5)cc4)nc3)c(F)c2)cc1Cl` [Compound 1196], the pEC50 was over 6.10.
Consider `CC(=O)c1ccccc1-c1ccc(-c2cnc(-c3ccc(C[C@H](NC(=O)c4ccc(C(C)(C)C)s4)C(=O)N4CC(C(=O)O)C4)cc3)nc2)c(F)c1` [Compound 1197], for which the pEC50 was 5.60 to 6.10.
`CC(C)(C)c1ccc(C(=O)N[C@@H](Cc2ccc(-c3ncc(-c4ccc(-c5cc(Cl)cc(Cl)c5)cc4F)cn3)cc2)C(=O)N2CC(C(=O)O)C2)s1` [Compound 1198]: the pEC50 is over 6.10.
Still for that read-out and setting: the figure for `Cc1cc(-c2ccc(-c3cnc(-c4ccc(C[C@H](NC(=O)c5ccc(C(C)(C)C)s5)C(=O)N5CC(C(=O)O)C5)cc4)nc3)c(F)c2)ccc1Cl` [Compound 1199] is over 6.10.
As to `CC(C)(C)c1ccc(C(=O)N[C@@H](Cc2ccc(-c3ncc(-c4ccc(-c5ccc(Cl)c(Cl)c5)cc4F)cn3)cc2)C(=O)N2CC(C(=O)O)C2)s1` [Compound 1200], the pEC50 is over 6.10.
As for `CC(C)(C)c1ccc(C(=O)N[C@@H](Cc2ccc(-c3ncc(-c4ccc(-c5ccc(C#N)cc5)cc4F)cn3)cc2)C(=O)N2CC(C(=O)O)C2)s1` [Compound 1201], the pEC50 was over 6.10.
